Experimental data published in patent publication US6545049B1, “Dimer-selective RXR modulators and methods for their use” (Ligand Pharmaceuticals Incorporated, priority 1995, dated 2003).
pEC50, pIC50, pKd: −log10 of the molar value.

What was measured:
RXRα [1] = molecular target: T1, RXRα (Homo sapiens, UniProt P19793); experiment: RXR binding, RXRα; details: -v- tritiated LGD1069 and tritiated 9-cis retinoic acid
T1 sequence (P19793 1-462): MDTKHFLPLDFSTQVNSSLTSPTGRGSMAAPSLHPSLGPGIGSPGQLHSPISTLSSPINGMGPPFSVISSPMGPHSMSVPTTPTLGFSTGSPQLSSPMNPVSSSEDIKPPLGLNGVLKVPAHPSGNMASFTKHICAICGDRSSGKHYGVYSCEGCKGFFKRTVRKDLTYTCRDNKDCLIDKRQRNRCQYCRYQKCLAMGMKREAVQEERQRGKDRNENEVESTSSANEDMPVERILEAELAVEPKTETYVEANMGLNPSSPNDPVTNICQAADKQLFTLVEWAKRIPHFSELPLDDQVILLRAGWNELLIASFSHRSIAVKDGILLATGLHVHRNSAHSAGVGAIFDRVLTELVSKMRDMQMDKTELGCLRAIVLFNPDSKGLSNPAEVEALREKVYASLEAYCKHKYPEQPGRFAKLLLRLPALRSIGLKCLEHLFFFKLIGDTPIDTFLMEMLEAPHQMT
Method: (§1) Non-specific binding was defined as that binding remaining in the presence of 500 nM of the appropriate unlabelled compound. At the end of the incubation period, bound from free ligand were separated. The amount of bound tritiated retinoids was determined by liquid scintillation counting of an aliquot (700 μL) of the supernatant fluid or the hydroxylapatite pellet.
(§2) After correcting for non-specific binding, IC50 values were determined. […] The IC50 value was determined graphically from a log-logit plot of the data. The Kd values were determined by application of the Cheng-Prussof equation to the IC50 values, the labeled ligand concentration and the Kd of the labeled ligand.

RXRβ [2] = molecular target: T2, RXRβ (Mus musculus, UniProt P28704); experiment: RXR binding, RXRβ; details: -v- tritiated LGD1069 and tritiated 9-cis retinoic acid
T2 sequence (P28704 1-520): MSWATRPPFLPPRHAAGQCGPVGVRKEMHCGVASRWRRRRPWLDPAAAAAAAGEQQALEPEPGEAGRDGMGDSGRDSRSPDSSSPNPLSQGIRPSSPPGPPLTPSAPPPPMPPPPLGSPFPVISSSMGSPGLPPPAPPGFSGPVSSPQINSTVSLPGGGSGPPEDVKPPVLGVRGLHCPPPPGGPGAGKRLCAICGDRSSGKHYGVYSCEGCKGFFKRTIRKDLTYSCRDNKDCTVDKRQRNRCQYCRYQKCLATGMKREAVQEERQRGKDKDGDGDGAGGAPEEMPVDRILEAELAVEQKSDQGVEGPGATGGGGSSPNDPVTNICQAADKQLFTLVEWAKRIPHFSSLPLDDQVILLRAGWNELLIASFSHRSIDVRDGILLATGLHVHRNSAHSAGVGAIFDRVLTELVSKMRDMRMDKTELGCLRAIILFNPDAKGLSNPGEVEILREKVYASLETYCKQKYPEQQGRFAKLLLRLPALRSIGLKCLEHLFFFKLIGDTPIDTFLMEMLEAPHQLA
Method: as §1, §2

RXRβ [3] = molecular target: T2, RXRβ; experiment: RXR homodimer co-transfection assay, antagonist mode, RXRβ; details: read-out: RXRβ Potency IC50; antagonist potency in the presence of the known RXR agonist LGD1069; CV-1 cells
RXRγ [4] = molecular target: T3, RXRγ (Mus musculus, UniProt P28705); experiment: RXR homodimer co-transfection assay, antagonist mode, RXRγ; details: read-out: RXRγ Potency IC50; antagonist potency in the presence of the known RXR agonist LGD1069; CV-1 cells
T3 sequence (P28705 1-463): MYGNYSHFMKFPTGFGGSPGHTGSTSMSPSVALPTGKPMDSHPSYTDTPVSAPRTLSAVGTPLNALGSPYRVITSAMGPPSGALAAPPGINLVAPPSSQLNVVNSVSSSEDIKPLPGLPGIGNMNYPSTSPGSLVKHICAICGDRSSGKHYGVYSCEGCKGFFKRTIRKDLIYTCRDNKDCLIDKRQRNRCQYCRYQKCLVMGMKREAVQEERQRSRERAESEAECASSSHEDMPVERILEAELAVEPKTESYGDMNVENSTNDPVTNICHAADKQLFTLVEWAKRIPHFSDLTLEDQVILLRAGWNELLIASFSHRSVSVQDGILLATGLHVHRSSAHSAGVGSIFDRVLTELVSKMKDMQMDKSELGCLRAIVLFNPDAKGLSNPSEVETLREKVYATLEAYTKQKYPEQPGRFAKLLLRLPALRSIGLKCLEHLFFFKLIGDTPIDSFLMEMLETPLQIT

RXRα [5] = molecular target: T1, RXRα; experiment: RXR homodimer co-transfection assay, antagonist mode, RXRα; details: read-out: RXRα Potency IC50; antagonist potency in the presence of the known RXR agonist LGD1069; CV-1 cells
RXRγ [6] = molecular target: T3, RXRγ; experiment: RXR binding, RXRγ; details: -v- tritiated LGD1069 and tritiated 9-cis retinoic acid
Method: as §1, §2

NB4 cells = experiment: NB4 myeloid leukemic cell differentiation; format: cell-based; details: Compound 122 1 mM, TTNPB, 9-cis retinoic acid, LG100268 100 nM, FIG. 3
Method: All points were performed in triplicate for each experiment and varied less than 20%. Each experiment was repeated at least three times with similar results.

RXRα:PPARα heterodimer = molecular target: T4, RXRα:PPARα heterodimer (Homo sapiens, UniProt P19793); experiment: RXR heterodimer co-transfection assay (RXRα and PPARα, PPARα response element reporter)
T4 sequence (P19793 1-462): T1 sequence (P19793 1-462)
T4 sequence (Q07869 1-468 partner): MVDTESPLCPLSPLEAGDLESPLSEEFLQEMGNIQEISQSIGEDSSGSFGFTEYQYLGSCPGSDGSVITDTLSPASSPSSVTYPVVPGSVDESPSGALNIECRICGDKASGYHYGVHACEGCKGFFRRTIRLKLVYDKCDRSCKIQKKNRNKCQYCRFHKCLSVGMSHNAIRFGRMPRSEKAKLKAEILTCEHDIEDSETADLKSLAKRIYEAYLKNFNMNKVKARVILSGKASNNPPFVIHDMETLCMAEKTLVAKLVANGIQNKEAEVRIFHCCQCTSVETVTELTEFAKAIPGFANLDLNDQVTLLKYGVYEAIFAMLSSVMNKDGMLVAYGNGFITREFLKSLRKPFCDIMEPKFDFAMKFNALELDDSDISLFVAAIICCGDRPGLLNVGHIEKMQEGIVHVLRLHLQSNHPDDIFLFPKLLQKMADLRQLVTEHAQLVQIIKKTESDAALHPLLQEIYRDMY

RXRα:RARα heterodimer = molecular target: T5, RXRα:RARα heterodimer (Homo sapiens, UniProt P19793); experiment: Gal4-receptor chimera transactivation assay, RXRα:RARα heterodimer
T5 sequence (P19793 227-458 limits assumed): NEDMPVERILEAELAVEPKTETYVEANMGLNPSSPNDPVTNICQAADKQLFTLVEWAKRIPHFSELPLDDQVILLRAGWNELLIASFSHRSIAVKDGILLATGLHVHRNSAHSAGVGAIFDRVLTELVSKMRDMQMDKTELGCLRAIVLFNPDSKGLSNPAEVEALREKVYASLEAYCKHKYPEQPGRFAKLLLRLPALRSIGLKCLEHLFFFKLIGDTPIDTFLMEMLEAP
T5 sequence (P10276 183-417 partner limits assumed): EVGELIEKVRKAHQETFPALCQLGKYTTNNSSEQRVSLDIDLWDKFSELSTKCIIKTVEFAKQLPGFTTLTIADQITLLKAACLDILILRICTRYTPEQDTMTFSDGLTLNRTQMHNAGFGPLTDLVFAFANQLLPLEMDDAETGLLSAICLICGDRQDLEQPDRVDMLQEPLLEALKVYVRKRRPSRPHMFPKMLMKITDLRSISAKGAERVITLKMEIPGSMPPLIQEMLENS
Method: (§3) Briefly, CV-1 cells were transfected in 12 well multi-well plates using 0.1 μg of each receptor and 0.5 μg of reporter per well. Each well was also transfected with 0.5 μg of the β-Gal expression plasmid as an internal control for transfection efficiency. Total plasmid per well was 2 μg made up using the plasmid pGEM. […] Receptor ligand binding domains (LBDs) were fused in-frame downstream to the Gal4 cDNA to produce Gal4-receptor fusion proteins. To express only the receptor LBDs, the LBD was cloned directly downstream to the CMV promoter.
Cells were then washed 2X with PBS and lysed using Promega lysis buffer and assayed for luciferase activity and β-galactosidase activity. All results were normalized against β-Gal.
The above assay system was used because reporter activity is dependent upon the binding of the Gal4 DNA binding domain to copies of its binding site, the UAS (upstream activation sequence), located upstream of the luciferase cDNA. […] Since endogenous receptors lack the Gal4 DNA binding domain, no background activation of the reporter is observed, however, Gal4-receptor LBD fusion proteins can bind the Gal4 site and be activated in a receptor ligand dependent manner. This system, therefore, completely eliminates the low background activity of endogenous receptors in CV-1 cells making it possible to test compound activity on exogenously added receptors.

RXRα:RXRα homodimer = molecular target: T6, RXRα:RXRα homodimer (Homo sapiens, UniProt P19793); experiment: Gal4-receptor chimera transactivation assay, RXR homodimer
T6 sequence (P19793 227-458 limits assumed): T5 sequence (P19793 227-458 limits assumed)
Method: as §3
Cells were then washed 2X with PBS and lysed using Promega lysis buffer and assayed for luciferase activity and β-galactosidase activity. All results were normalized against β-Gal. Each set was done in triplicates and each experiment was carried out at least 3 separate times with similar results.

Row | Compound | pKd (RXRα [1]) | pKd (RXRβ [2]) | pIC50 (RXRβ [3]) | pIC50 (RXRγ [4]) | pIC50 (RXRα [5]) | pKd (RXRγ [6]) | further results
1 | 4-[(3-n-propyl-5,6,7,8-tetrahydro-5,5,8,8-tetramethyl-2-naphthyl)ethenyl]benzoic acid [Compound 102] | 6.55 | 6.37 | 6.18 | 5.78 | 6.41 | 6.17 | –
2 | 4-[(3-propoxy-5,6,7,8-tetrahydro-5,5,8,8-tetramethyl-2-naphthyl)carbonyl]benzoic acid O-methyloxime [Compound 110] | 7.40 | 7.11 | 6.66 | 6.68 | 7.10 | 7.18 | –
3 | 4-[(3-propoxy-5,6,7,8-tetrahydro-5,5,8,8-tetramethyl-2-naphthyl)carbonyl]benzoic acid oxime [Compound 109] | 7.43 | 7.48 | 6.71 | 6.40 | 6.68 | 7.33 | –
4 | CC1=C(/C=C/C(C)=C\C=C\C(C)=C\C(=O)O)C(C)(C)CCC1 [9-cis retinoic acid] | – | – | – | – | – | – | differentiation of NB4 cells (in words) (NB4 cells): stimulate NB4 cells to differentiate
5 | CC(C)(Oc1ccc(Cl)cc1)C(=O)O [Clofibric acid, clofibric acid, reference compound] | – | – | – | – | – | – | pEC50 (RXRα:PPARα heterodimer): 4.40; Fold activation (RXRα:PPARα heterodimer; normalized luciferase values at 10−4M (clofibric acid) divided by values with vehicle): 6.5 fold
6 | CCCc1cc2c(cc1C1(c3ccc(C(=O)O)cc3)CC1)C(C)(C)CCC2(C)C [Compound 103, 4-[(3-n-propyl-5,6,7,8-tetrahydro-5,5,8,8-tetramethyl-2-naphthyl)cyclopropyl]benzoic acid] | 6.41 | 6.07 | 6.15 | 5.78 | 6.30 | 6.03 | –
7 | CC(C=CC=C(C)c1cc2c(cc1OCc1ccccc1)C(C)(C)CCC2(C)C)=CC(=O)O [Compound 128, (2E, 4E, 6Z)-7-[3-benzyloxy-5,6,7,8-tetrahydro-5,5,8,8-tetramethyl-2-naphthalen-2-yl]-3-methylocta-2,4,6-trienoic acid] | 8.05 | 7.64 | – | – | – | 7.57 | pEC50 (RXRα:PPARα heterodimer): 6.70; Fold activation (RXRα:PPARα heterodimer; normalized luciferase values at 10−5M divided by values with vehicle): 4 fold
8 | C/C(=C/C=C/C(C)=C/C(=O)O)c1cc2c(cc1OCc1ccc(C)cc1)C(C)(C)CCC2(C)C [Compound 130, (2E, 4E, 6Z)-7-[3-(4-methylbenzyloxy)-5,6,7,8-tetrahydro-5,5,8,8-tetramethyl-2-naphthalen-2-yl]-3-methylocta-2,4,6-trienoic acid] | – | – | – | – | – | – | effect on RXRα:RARα heterodimer in combination with TTNPB (in words) (RXRα:RARα heterodimer; combined with the RXR:RAR activator TTNPB, data not shown): slight increase in activation; agonist activity on RXRα:RARα heterodimers (in words) (RXRα:RARα heterodimer; compound alone): potent agonists; Fold activation (RXRα:RXRα homodimer; CV-1 cells, 100 nM LG100268, LGD1069, 500 nM Compounds 117, 122, 130, 1 mM Compound 131, n.e. = no effect): n.e.; agonist activity on RXR homodimers in the GAL4 transfection assay (in words) (RXRα:RXRα homodimer; compound alone): inactive; antagonist activity on RXR homodimers in the GAL4 transfection assay (in words) (RXRα:RXRα homodimer; in combination with either LGD1069 or LG100268): strong antagonists; Fold Repression (RXRα:RXRα homodimer; in combination with either LGD1069 or LG100268, 500 nM Compounds 117, 122, 130, 1 mM Compound 131): 25-75 fold
9 | CCCOc1cc2c(cc1C1CC1C/C=C/C(C)=C/C(=O)O)C(C)(C)CCC2(C)C (stereo not shown) [Compound 152, (2E, 4E)-6-[2-(5,5,8,8-tetramethyl-3-propyloxy-5,6,7,8-tetrahydronaphthalen-2-yl)cyclopropan-1-yl]-3-methyl hexadienoic acid] | 8.10 | 7.35 | 6.47 | 6.37 | 6.71 | 7.68 | –
10 | Cc1cc2c(cc1C1(c3ccc(C(=O)O)cn3)CC1)C(C)(C)CCC2(C)C [LG100268, 6-[1-(3,5,5,8,8-pentamethyl-5,6,7,8-tetrahydronaphthalen-2-yl)cyclopropyl]nicotinic acid] | – | – | – | – | – | – | differentiation of NB4 cells (in words) (NB4 cells): does not promote NB4 differentiation; differentiation of NB4 cells (in words) (NB4 cells; listed as LB100268): does not
11 | (2E, 4E)-7-[(5,5,8,8-tetramethyl-3-heptyloxy-5,6,7,8-tetrahydronaphthalen-2-yl)cyclopropan-1-yl]-3-methyl heptadienoic acid [Compound 156] | 7.96 | 8.15 | 7.21 | 7.33 | 7.74 | 8.05 | –
12 | (2E, 4E)-7-[(5,5,8,8-tetramethyl-3-propyloxy-5,6,7,8-tetrahydronaphthalen-2-yl)cyclopropan-1-yl]-3-methyl heptadienoic acid [Compound 155] | 8.05 | 8.05 | 7.28 | 7.43 | 7.62 | 8.10 | –
